Data taken from US12351804B2, “Production method for bifurcated lipid-linked oligonucleotide, and intermediate” (Shionogi & Co., Ltd., priority 2019, dated 2025).

Test: Stability of the amidite intermediate on storage (UPLC/HPLC analysis)
Assay type: physicochemical
Method: The following conditions were used for the analysis of compound 5.
Mobile phase [A]: 60 mM ammonia-ammonium acetate-containing buffer solution (pH 8.0), Mobile phase [B]: acetonitrile
Gradient: 15% solvent [B] was kept for 0.5 minutes, then linear gradient from 15% to 50% solvent [B] was performed in 2.5 minutes, linear gradient from 50% to 65% solvent [B] was performed in 9 minutes, linear gradient from 65% to 95% solvent [B] was performed in 3 minutes, and 95% solvent [B] was kept for 1 minute.
Column: ACQUITY UPLC (registered trademark) BEH Phenyl (1.7 μm, i.d. 2.1×100 mm) (Waters)
UV Detection wavelength: 295 nm
The following conditions were used for the analysis of comparative compound.
Mobile phase [A]: 10 mM ammonium formate-containing aqueous solution, Mobile phase [B]: methanol
Gradient: 97% solvent [B] was kept for 20 minutes.
Column: Triart (registered trademark) C8 (3 μm, i.d. 4.6×100 mm) (YMC)
Detector: Corona CAD, Corona CAD detection conditions: 60 Hz, BCD polarity+, pressure 35±1 psi, total flow rate 1.53 mL/min

Structure (SMILES)	Stability (analysis value) (−20° C., after 7 months) [%]	Stability (analysis value) (−20° C., after 71 days) [%]	Stability (analysis value) (−20° C., initial) [%]	Decomposition on storage (−20° C., over time)	Decomposition on storage (40° C. for 50 days)	Stability (analysis value) (40° C., after 7 days) [%]	Stability (analysis value) (40° C., after 50 days) [%]	Stability (analysis value) (40° C., initial) [%]
CCCCCCCCCCCCCCCCCCCC(=O)NCC(CNC(=O)CCCCCCCCCCCCCCCCCCC)OP(OCCC#N)N(C(C)C)C(C)C (centres unmarked) [Comparative compound]	33.8	42.0	54.3	unstable				
CC(C)N(C(C)C)P(OCCC#N)OC(CN1C(=O)c2ccccc2C1=O)CN1C(=O)c2ccccc2C1=O (centres unmarked) [Compound 5]					No decomposition	99.6	99.7	99.6
